According to US11491120B2, “Pharmacological prophylactics against stress-induced affective disorders in females” (The Trustees of Columbia University in the City of New York, priority 2017, dated 2022):
Entries after “also recorded” stand apart in the source; their conditions may differ.

Tested on: female 129S6/SvEv mice
Assay: Contextual fear conditioning (CFC), 3-shock, freezing in training and context re-exposure
Conditions: for Freezing during CFC re-exposure vs saline: vehicle condition; for Freezing during re-exposure to the CFC training context vs saline: single i.p. injection 1 week before 3-shock CFC, all doses; for Freezing during re-exposure to the CFC training context vs saline / Attenuation of learned fear: female mice; for Attenuation of learned fear: single injection 1 week before stressor
[1] = Contextual Fear Conditioning Training, Dunnett test Sal vs. drug (2.5), 1 week prophylactic drug
[2] = Contextual Fear Conditioning Training, Dunnett test Sal vs. drug (10), 1 week prophylactic drug
[3] = Contextual Fear Conditioning Training, Dunnett test Sal vs. drug (30), 1 week prophylactic drug
[4] = Ovariectomized cohort, 1 week prophylactic drug, Contextual Fear Conditioning Re-exposure, FIG. 10B, Sham mice, K (10), (2R,6R)-HNK (0.025)
[5] = Ovariectomized cohort, 1 week prophylactic drug, Contextual Fear Conditioning Re-exposure, FIG. 10C, Sham mice, K (10), (2R,6R)-HNK (0.025)
[6] = Ovariectomized, E2/P4 replacement, 1 week prophylactic drug, Contextual Fear Conditioning Re-exposure, FIG. 10E, Vehicle (hormone) mice, K (10), (2R,6R)-HNK (0.025)
[7] = Ovariectomized, E2/P4 replacement, 1 week prophylactic drug, Contextual Fear Conditioning Re-exposure, FIG. 10F, Vehicle (hormone) mice, K (10), (2R,6R)-HNK (0.025)
[8] = Ovariectomized, E2/P4 replacement, 1 week prophylactic drug, Contextual Fear Conditioning Training, FIG. 10D, Vehicle vs E2/P4, same drug, K (10), (2R,6R)-HNK (0.025)
[9] = Sal vs. K (2.5), Fisher's PLSD, 3 day prophylactic drug/Contextual Fear Conditioning Training
[10] = Sal vs. K (10), Fisher's PLSD, 1 week prophylactic drug, learned helplessness stress, Contextual Fear Conditioning Re-exposure
[11] = Sal vs. K (10), Fisher's PLSD, 3 day prophylactic drug/Contextual Fear Conditioning Training
[12] = Sal vs. K (10), Fisher's PLSD, Stress, antidepressant drug/Contextual Fear Conditioning Training

CNC1(c2ccccc2Cl)CCCCC1=O (racemic) [(R,S)-ketamine, (RS)-2-(2-chlorophenyl)-2-(methylamino)cyclohexanone]
p, Freezing (min 1-5) [1]: 0.5398
p, Freezing (min 4) [1]: 0.9957
p, Freezing (min 5) [1]: 0.2720
p, Freezing (min 1-5) [2]: >0.9999
p, Freezing (min 4) [2]: 0.9996
p, Freezing (min 5) [2]: 0.9996
p, Freezing (min 1-5) [3]: 0.9998
p, Freezing (min 4) [3]: >0.9999
p, Freezing (min 5) [3]: 0.9997
p, Freezing (min 1-5), Fisher's PLSD, OVX Sal vs OVX drug (Ovariectomized cohort, 1 week prophylactic drug, Contextual Fear Conditioning Re-exposure, FIG. 10B, OVX mice, K (10), (2R,6R)-HNK (0.025)): 0.1532
* (significance), Freezing (min 1-5), Fisher's PLSD, Sham Sal vs Sham drug [4]: * (* p<0.05)
p, Freezing (min 1-5), Fisher's PLSD, Sham Sal vs Sham drug [4]: 0.0290
p, Freezing (min 1-5), Fisher's PLSD, Sham drug vs OVX drug (Ovariectomized cohort, 1 week prophylactic drug, Contextual Fear Conditioning Re-exposure, FIG. 10B, Sham vs OVX, same drug, K (10), (2R,6R)-HNK (0.025)): 0.7813
p, Freezing Average (min 1-5), Fisher's PLSD, OVX Sal vs OVX drug (Ovariectomized cohort, 1 week prophylactic drug, Contextual Fear Conditioning Re-exposure, FIG. 10C, OVX mice, K (10), (2R,6R)-HNK (0.025)): 0.1532
* (significance), Freezing Average (min 1-5), Fisher's PLSD, Sham Sal vs Sham drug [5]: * (* p<0.05)
p, Freezing Average (min 1-5), Fisher's PLSD, Sham Sal vs Sham drug [5]: 0.0290
p, Freezing Average (min 1-5), Fisher's PLSD, Sham drug vs OVX drug (Ovariectomized cohort, 1 week prophylactic drug, Contextual Fear Conditioning Re-exposure, FIG. 10C, Sham vs OVX, same drug, K (10), (2R,6R)-HNK (0.025)): 0.7813
p, Freezing (min 1-5), Fisher's PLSD, E2/P4 Sal vs E2/P4 drug (Ovariectomized, E2/P4 replacement, 1 week prophylactic drug, Contextual Fear Conditioning Re-exposure, FIG. 10E, E2/P4 mice, K (10), (2R,6R)-HNK (0.025)): 0.7946
* (significance), Freezing (min 1-5), Fisher's PLSD, Vehicle Sal vs Vehicle drug [6]: ** (** p<0.01)
p, Freezing (min 1-5), Fisher's PLSD, Vehicle Sal vs Vehicle drug [6]: 0.0077
p, Freezing (min 1-5), Fisher's PLSD, Vehicle drug vs E2/P4 drug (Ovariectomized, E2/P4 replacement, 1 week prophylactic drug, Contextual Fear Conditioning Re-exposure, FIG. 10E, Vehicle vs E2/P4, same drug, K (10), (2R,6R)-HNK (0.025)): 0.2095
p, Freezing Average (min 1-5), Fisher's PLSD, E2/P4 Sal vs E2/P4 drug (Ovariectomized, E2/P4 replacement, 1 week prophylactic drug, Contextual Fear Conditioning Re-exposure, FIG. 10F, E2/P4 mice, K (10), (2R,6R)-HNK (0.025)): 0.7946
* (significance), Freezing Average (min 1-5), Fisher's PLSD, Vehicle Sal vs Vehicle drug [7]: ** (** p<0.01)
p, Freezing Average (min 1-5), Fisher's PLSD, Vehicle Sal vs Vehicle drug [7]: 0.0077
p, Freezing Average (min 1-5), Fisher's PLSD, Vehicle drug vs E2/P4 drug (Ovariectomized, E2/P4 replacement, 1 week prophylactic drug, Contextual Fear Conditioning Re-exposure, FIG. 10F, Vehicle vs E2/P4, same drug, K (10), (2R,6R)-HNK (0.025)): 0.2095
p, Freezing (min 1-5), Fisher's PLSD, E2/P4 Sal vs E2/P4 drug (Ovariectomized, E2/P4 replacement, 1 week prophylactic drug, Contextual Fear Conditioning Training, FIG. 10D, E2/P4 mice, K (10), (2R,6R)-HNK (0.025)): 0.5725
p, Freezing (min 1-5), Fisher's PLSD, Vehicle Sal vs Vehicle drug (Ovariectomized, E2/P4 replacement, 1 week prophylactic drug, Contextual Fear Conditioning Training, FIG. 10D, Vehicle (hormone) mice, K (10), (2R,6R)-HNK (0.025)): 0.1466
* (significance), Freezing (min 1-5), Fisher's PLSD, Vehicle drug vs E2/P4 drug [8]: ** (** p<0.01)
p, Freezing (min 1-5), Fisher's PLSD, Vehicle drug vs E2/P4 drug [8]: 0.0004
*, Freezing (min 5) [9]: * (* p<0.05)
p, Freezing (min 5) [9]: 0.0143
*, Freezing (min 1) [10]: * (* p<0.05)
p, Freezing (min 1) [10]: 0.0166
*, Freezing (min 5) [11]: ** (** p<0.01)
p, Freezing (min 5) [11]: 0.0078
p, Freezing (min 1-5) [12]: 0.1932
p, Freezing (min 5) [12]: 0.2639
p, Freezing (min 5) (Sal vs. K (30), Fisher's PLSD, 3 day prophylactic drug/Contextual Fear Conditioning Training): 0.0606
Freezing during CFC Training, E2/P4+drug vs vehicle+drug (ovariectomized mice, hormone replacement): froze significantly more
Freezing during CFC re-exposure vs saline (ovariectomized mice): displayed altered freezing
Freezing during CFC re-exposure vs saline (ovariectomized mice, listed as (R, S)-ketamine): froze significantly less than saline mice
Freezing during re-exposure to the CFC training context vs saline (listed as (R, S)-ketamine): did not alter fear encoding or fear retrieval; also recorded: did not alter overall freezing
Freezing during re-exposure to the CFC training context vs saline (listed as Racemic ketamine): do not significantly alter freezing
Attenuation of learned fear: do not attenuate learned fear
Attenuation of learned fear (listed as (R, S)-ketamine): do not attenuate learned fear; also recorded: do not alter learned fear
